From patent publication US20220265817A1, “THERAPEUTIC COMPOSITIONS AND METHODS FOR TREATING HEPATITIS B” (priority 2017, published 2022)
Where two headings read alike, the source gives them in different places.

Assays:
[1] = tested on: HBV rcDNA in AML12-HBV10 cells; test: AML12-HBV10 cell culture system, rcDNA quantitation using bDNA assay, MacSynergy II; type: cell-based, mouse hepatocyte cell line; conditions: for EC50: rcDNA, AML12-HBV10 cells, 48 hrs, read-out: Inhibitor EC50; for inhibition at 0.01 µM: Compound 3 0.010 μM; for inhibition at 0.02 µM: Compound 3 0.020 μM; for inhibition at 0.039 µM: Compound 3 0.039 μM; for inhibition at 0.078 µM: Compound 3 0.078 μM; for inhibition at 0.313 µM: Compound 3 0.313 μM; for inhibition at 0.625 µM: Compound 3 0.625 μM; for inhibition at 1.25 µM: Compound 3 1.250 μM
Method: In vitro combination studies were conducted using the method of Prichard and Shipman (Prichard M N, and Shipman C Jr., Antiviral Research, 1990, 14 (4-5), 181-205; and Prichard M N, et. al., MacSynergy II). The AML12-HBV10 cell line was developed as described in Campagna et al. (Campagna et. al., J. Virology, 2013, 87(12), 6931-6942). It is a mouse hepatocyte cell line stably transfected with the HBV genome, and which can express HBV pregenomic RNA and support HBV rcDNA (relaxed circular DNA) synthesis in a tetracycline-regulated manner. AML12-HBV10 cells were plated in 96 well tissue-culture treated microtiter plates in DMEM/F12 medium supplemented with 10% fetal bovine serum +1% penicillin-streptomycin without tetracycline and incubated in a humidified incubator at 37° C. and 5% CO2 overnight. […] The two inhibitors were tested both singly as well as in combinations in a checkerboard fashion such that each concentration of inhibitor A was combined with each concentration of inhibitor B to determine their combination effects on inhibition of rcDNA production. Following a 48 hour-incubation, the level of rcDNA present in the inhibitor-treated wells was measured using a bDNA assay (Affymetrix) with HBV specific custom probe set and manufacturer's instructions. […] Concurrently, the effect of inhibitor combinations on cell viability was assessed using replicate plates that were used to determine the ATP content as a measure of cell viability using the cell-titer glo reagent (Promega) as per manufacturer's instructions.

hepatitis B virus (HBV) = test: Humanized liver chimeric mouse model of chronic HBV infection, serum HBV DNA by quantitative PCR; type: in vivo; conditions: mean
Method: This work was conducted in a well-established humanized liver chimeric mouse model of chronic hepatitis B virus (HBV) infection (Tsuge et al., Hepatology, 42(5), 1046-54 (2005)). A persistent level of HBV infection was established in the animals prior to the treatment phase which started at Day 0.
The anti-HBV effects were assessed based on serum HBsAg levels using the GS HBsAg EIA 3.0 enzyme linked immunosorbent assay kit from Bio-Rad Laboratories as per manufacturer instructions; and serum HBV DNA levels measured from total extracted DNA using a quantitative PCR assay (primer/probe sequences from Tanaka et al., Journal of Medical Virology, 72, 223-229 (2004)).

[2] = tested on: D type HBV in primary human hepatocytes; test: microbe, parasite or virus in culture; type: cell-based; conditions: Hepatitis B virus, Hepatocyte
How it was run: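 Supernatants collected on day 8 were assayed for HBV DNA by qPCR after compound exposure beginning day 2, with media and compound replaced every second day, in hepatocytes infected on day 1 with D type HBV. Dose-response: 7 points, 3-fold steps, triplicate; pairwise combinations tested as 5×5 matrix, synergy by MacSynergy.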

[3] = Hepatitis B virus, AML12HBV10, in Mus musculus, ETV μM: 0.075, 0.025, 0.008, 0.003, 0.001, 0
[4] = Hepatitis B virus, AML12HBV10, in Mus musculus, SIRNA-NP μg/mL: 0.5, 0.167, 0.056, 0.019, 0.006, 0

**Q.** Which EC50 ([1]; Hepatitis B virus, AML12HBV10, in Mus musculus, 48 h) does the source give for `CC[C@@H](C)NS(=O)(=O)c1ccc(F)c(C(=O)Nc2ccc(F)c(F)c2)c1` [Compound 3] here?
**A.** Its EC50 is 250 nM.

**Q.** And the inhibition at 0.01 µM [1, 3]?
**A.** The inhibition at 0.01 µM was -3.19%.

**Q.** And the inhibition at 0.01 µM [1, 4]?
**A.** Its inhibition at 0.01 µM is -1.98%.

**Q.** What about the inhibition at 0.02 µM [1, 3] of the same molecule?
**A.** Its inhibition at 0.02 µM is 0.62%.

**Q.** And the inhibition at 0.02 µM [1, 4]?
**A.** Its inhibition at 0.02 µM is -20.5%.

**Q.** What about the inhibition at 0.039 µM [1, 3] of the same molecule?
**A.** The inhibition at 0.039 µM was 7.38%.

**Q.** And the inhibition at 0.039 µM [1, 4]?
**A.** The inhibition at 0.039 µM was -16.9%.

**Q.** What about the inhibition at 0.078 µM [1, 3] of the same molecule?
**A.** Its inhibition at 0.078 µM is -1.81%.

**Q.** And the inhibition at 0.078 µM [1, 4]?
**A.** The inhibition at 0.078 µM was 20.1%.

**Q.** What about the inhibition at 0.313 µM [1, 3] of the same molecule?
**A.** The inhibition at 0.313 µM was 71%.

**Q.** And the inhibition at 0.313 µM [1, 4]?
**A.** The inhibition at 0.313 µM was 59.4%.

**Q.** What about the inhibition at 0.625 µM [1, 3] of the same molecule?
**A.** The inhibition at 0.625 µM was 80.8%.

**Q.** And the inhibition at 0.625 µM [1, 4]?
**A.** The inhibition at 0.625 µM was 79.9%.

**Q.** What about the inhibition at 1.25 µM [1, 3] of the same molecule?
**A.** The inhibition at 1.25 µM was 86.7%.

**Q.** What about the inhibition at 1.25 µM [1, 4] of the same molecule?
**A.** The inhibition at 1.25 µM was 88.1%.

**Q.** And the inhibition at 2.5 µM ([1]; Hepatitis B virus, AML12HBV10, in Mus musculus, Compound 3 2.500 μM, ETV μM: 0.075, 0.025, 0.008, 0.003, 0.001, 0)?
**A.** The inhibition at 2.5 µM was 90.5%.

**Q.** And the inhibition at 2.5 µM ([1]; Hepatitis B virus, AML12HBV10, in Mus musculus, Compound 3 2.5 μM, SIRNA-NP μg/mL: 0.5, 0.167, 0.056, 0.019, 0.006, 0)?
**A.** The inhibition at 2.5 µM was 89.7%.

**Q.** What about the EC50 [1] of the same molecule?
**A.** The EC50 was 231 nM.

**Q.** What about the “Serum HBV DNA” value (hepatitis B virus (HBV); Day 0 (start of treatment), SEM in the line below) of the same molecule?
**A.** Its value is 1.70E+08 Copies/mL.

**Q.** And the “Serum HBV DNA” value (hepatitis B virus (HBV); Day 7, Compound 3 oral 100 mg/kg twice daily, SIRNA-NP iv 3 mg/kg every 2 weeks, ETV oral 1.2 μg/kg daily, pegIFN α-2a sc 30 μg/kg twice a week)?
**A.** The value was 1.33E+07 Copies/mL.

**Q.** What about the “Serum HBV DNA” value (hepatitis B virus (HBV); Day 14, same dosages) of the same molecule?
**A.** The value was 1.28E+07 Copies/mL.

**Q.** And the “Serum HBV DNA” value (hepatitis B virus (HBV); Day 21, same dosages)?
**A.** Its value is 1.02E+07 Copies/mL.

**Q.** And the “Serum HBV DNA” value (hepatitis B virus (HBV); Day 28, same dosages)?
**A.** The value was 1.17E+07 Copies/mL.

**Q.** And the EC50 ([2]; 456 h, HBV DNA endpoint, PHH, determined in an earlier separate experiment (Table 19d), read-out: Inhibitor B EC50)?
**A.** Its EC50 is 876 nM.

**Q.** What about the EC50 ([2]; 576 h, PHH, determined in an earlier separate experiment (Table 24d), read-out: Inhibitor B EC50 HBV DNA) of the same molecule?
**A.** The EC50 was 876 nM.

**Q.** And the inhibition at 0.06173 µM ([2]; read-out: AVERAGE % […] DNA, COMPOUND 3 61.73 nM alone (Table 19a))?
**A.** Its inhibition at 0.06173 µM is -28.1%.

**Q.** What about the inhibition at 0.06864 µM ([2]; read-out: AVERAGE % […] DNA, COMPOUND 3 68.64 nM alone (Table 20a)) of the same molecule?
**A.** Its inhibition at 0.06864 µM is -2.79%.

**Q.** What about the inhibition at 0.18519 µM ([2]; read-out: AVERAGE % […] DNA, COMPOUND 3 185.19 nM alone (Table 19a), read-out: AVERAGE % INHIBITION HBV DNA) of the same molecule?
**A.** Its inhibition at 0.18519 µM is -25.9%.

**Q.** What about the inhibition at 0.20593 µM ([2]; read-out: AVERAGE % […] DNA, COMPOUND 3 205.93 nM alone (Table 20a)) of the same molecule?
**A.** Its inhibition at 0.20593 µM is -5.02%.

**Q.** What about the inhibition at 0.55556 µM ([2]; read-out: AVERAGE % […] DNA, COMPOUND 3 555.56 nM alone (Table 19a), read-out: AVERAGE % INHIBITION HBV DNA) of the same molecule?
**A.** The inhibition at 0.55556 µM was -3.32%.

**Q.** What about the inhibition at 0.61778 µM ([2]; read-out: AVERAGE % […] DNA, COMPOUND 3 617.78 nM alone (Table 20a)) of the same molecule?
**A.** The inhibition at 0.61778 µM was 34.8%.

**Q.** And the inhibition at 1.66667 µM ([2]; read-out: AVERAGE % […] DNA, COMPOUND 3 1666.67 nM alone (Table 19a))?
**A.** The inhibition at 1.66667 µM was 25.9%.

**Q.** And the inhibition at 1.85333 µM ([2]; read-out: AVERAGE % […] DNA, COMPOUND 3 1853.33 nM alone (Table 20a))?
**A.** The inhibition at 1.85333 µM was 66.4%.

**Q.** What about the inhibition at 5 µM ([2]; read-out: AVERAGE % […] DNA, COMPOUND 3 5000.00 nM alone (Table 19a), read-out: AVERAGE % INHIBITION HBV DNA) of the same molecule?
**A.** Its inhibition at 5 µM is 74.8%.

**Q.** What about the inhibition at 5.56 µM ([2]; read-out: AVERAGE % […] DNA, COMPOUND 3 5560.00 nM alone (Table 20a)) of the same molecule?
**A.** Its inhibition at 5.56 µM is 85.3%.

**Q.** And the inhibition at 61.73 µM ([2]; read-out: AVERAGE % […] DNA, COMPOUND 3 61.73 μM alone)?
**A.** The inhibition at 61.73 µM was -11.7%.

**Q.** And the inhibition at 185.19 µM ([2]; read-out: AVERAGE % […] DNA, COMPOUND 3 185.19 μM alone)?
**A.** Its inhibition at 185.19 µM is 4.14%.

**Q.** What about the inhibition at 555.56 µM ([2]; read-out: AVERAGE % […] DNA, COMPOUND 3 555.56 μM alone) of the same molecule?
**A.** The inhibition at 555.56 µM was 26.5%.

**Q.** And the inhibition at 1666.67 µM ([2]; read-out: AVERAGE % […] DNA, COMPOUND 3 1666.67 μM alone)?
**A.** The inhibition at 1666.67 µM was 69.4%.

**Q.** And the inhibition at 5000 µM ([2]; read-out: AVERAGE % […] DNA, COMPOUND 3 5000.00 μM alone)?
**A.** The inhibition at 5000 µM was 84.3%.

**Q.** And the EC50 ([2]; HBV DNA, determined in an earlier separate experiment, read-out: Inhibitor EC50)?
**A.** Its EC50 is 876 nM.
